Two compounds from patent US6365594B1, “Heterocycle-condensed morphinoid derivatives (II)” (SmithKline Beecham S.p.A., priority 1996, dated 2002) can be followed below.

Each structure is given as a SMILES string. Where a name gives a salt, the structure may show the parent alone.

In series [1] the target is T1, delta receptor (Mus musculus, UniProt P32300).
T1 construct: endogenous in cells; host or cells: NG108-15 cells
Briefly: cAMP bioassay in NG108-15 cells (inhibition of forskolin-stimulated cAMP). Type of series: cell-based. How it is done:
The delta agonistlantagonist activity of the compounds of the present invention is determined in the cAMP bioassay in NG108-15 cell lines as described below.
NG 108-15 cell were grown at 37° C. in humidified atmosphere of 5% CO2 and 95% air in DMEM (without sodium pyruvate using 4500 mg/l glucose) supplemented with 10% foetal calf serum containing 2 mM glutamine, 2% HAT×50 supplement, 50 μg streptomycin and 50 I.U. penicillin per ml confluent cells were harvested with […] in Ca/Mg-free phosphate-buffered saline with mechanical stiring. Medium was replaced every 2 day. One day before the experiment the cells were dispensed in 17 mm culture plate (about 10×10^6 cells/plate). After 1 day, the growth medium was removed and cells washed twice with a modified Krebs-Ringer medium buffered with hepes-NaOH 200 mM, pH 7.4, that contained (mmol/l): NaCl (125), KCl (5), KH2PO4 (0.4), MgSO4 and CaCl2 (1.2) NaHCO3 (25), glucose (12). Incubation medium was also including 1 mM 3-isobuthyl-1-methylxantine (IBMX). Experiments were performed at room temperature. After incubation for 10 minutes to allow IBMX incorporation, NG108-15 cells were exposed to 1 μM forskolin and the compound to be tested, for 10 minutes. […] The pellets from the original plates were dissolved in NaOH 0.5N and the protein content was determined with the method described by Bradfort (Anal. Biochem. 1976, 72, 248). […]

Series [2] has as its target T2, mu opioid receptor (Mus musculus, UniProt P42866).
T2 construct: Mouse brain membranes were prepared as described by Kosterlitz; from tissue; host or cells: mouse brain membranes
Briefly: radioligand binding, mu ligand [3H]-DAMGO, mouse brain membranes. Conditions: selectivity ratio. How it is done:
(§1) The activity of the compounds of the present invention as selective delta ligands is determined in radioligand binding assays as described below.
(§2) Mouse brain membranes were prepared as described by Kosterlitz (Br. J. Pharmacol., 1981, 73, 939.). The binding of the preferential delta ligand [^3H]-[D-Ala^2,D-Leu^5]-enkephalin (DADLE) was evaluated at its KD concentration (1.3 nM) in presence of 40 nM of the unlabelled mu ligand [D-Ala^2, MePhe^4, Gly-ol^5]-enkephalin (DAMGO). The binding of the mu ligand [^3H]-DAMGO (Eur. J. Pharmacol., 1989, 166, 213) and of the kappa ligand [^3H]-U69593 (Excerpta Medica, 1990, 211) were carried out at 0.5 nM. The non-specific binding was determined in presence of naloxone (10 μM) for all tritiated ligands. Binding data were expressed as percentage of inhibition and fitted the following equation: f(x)=100·X/(IC50+X) where X are cold drug concentration values. The IC50 obtained were used to calculate the inhibitory constants (Ki) accordingly to the Cheng and Prusoff relation (Biochem. Pharmacol., 1973, 22, 3099).

Series [3] addresses T3, kappa opioid receptor (Mus musculus, UniProt P33534).
T3 construct: Mouse brain membranes were prepared as described by Kosterlitz; from tissue; host or cells: mouse brain membranes
Nature of the series: radioligand binding, kappa ligand [3H]-U69593, mouse brain membranes. Conditions: selectivity ratio. The procedure: as §1, §2

T1 sequence (P32300 whole entry): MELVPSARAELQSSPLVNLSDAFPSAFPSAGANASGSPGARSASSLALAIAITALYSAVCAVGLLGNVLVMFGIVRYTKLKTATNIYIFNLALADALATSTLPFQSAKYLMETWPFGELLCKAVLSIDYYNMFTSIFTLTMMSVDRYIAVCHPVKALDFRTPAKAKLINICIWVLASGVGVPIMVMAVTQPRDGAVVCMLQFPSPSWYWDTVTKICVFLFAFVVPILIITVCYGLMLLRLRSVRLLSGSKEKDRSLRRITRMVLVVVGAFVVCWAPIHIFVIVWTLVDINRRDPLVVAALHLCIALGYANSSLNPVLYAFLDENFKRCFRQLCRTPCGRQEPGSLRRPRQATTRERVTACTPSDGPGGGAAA
T3 sequence (P33534 whole entry): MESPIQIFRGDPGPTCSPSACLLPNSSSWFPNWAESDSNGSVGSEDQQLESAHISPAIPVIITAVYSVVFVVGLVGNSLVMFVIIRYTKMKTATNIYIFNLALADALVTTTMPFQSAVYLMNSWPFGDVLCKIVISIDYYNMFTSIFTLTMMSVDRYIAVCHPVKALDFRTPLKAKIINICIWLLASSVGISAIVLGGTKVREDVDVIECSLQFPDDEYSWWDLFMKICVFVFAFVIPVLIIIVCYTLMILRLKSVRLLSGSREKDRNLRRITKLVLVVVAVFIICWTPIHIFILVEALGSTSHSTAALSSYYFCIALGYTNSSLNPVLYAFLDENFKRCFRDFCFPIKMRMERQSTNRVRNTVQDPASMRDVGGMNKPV
T2 sequence (P42866 whole entry): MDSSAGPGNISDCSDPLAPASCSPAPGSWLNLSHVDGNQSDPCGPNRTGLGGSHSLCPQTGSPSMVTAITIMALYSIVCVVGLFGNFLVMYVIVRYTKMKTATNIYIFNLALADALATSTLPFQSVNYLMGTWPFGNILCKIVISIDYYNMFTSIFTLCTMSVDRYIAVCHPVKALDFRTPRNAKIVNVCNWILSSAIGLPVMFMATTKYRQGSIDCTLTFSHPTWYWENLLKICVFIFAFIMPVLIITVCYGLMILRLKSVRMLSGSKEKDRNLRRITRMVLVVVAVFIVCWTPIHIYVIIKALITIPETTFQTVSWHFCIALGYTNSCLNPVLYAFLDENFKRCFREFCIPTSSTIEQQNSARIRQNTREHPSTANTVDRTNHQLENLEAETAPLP

On to `COc1ccc2c3c1O[C@H]1c4[nH]c(C(=O)N(Cc5ccccc5)C(C)C)c(C)c4C[C@H]4[C@@H](C2)N(C)CC[C@]314` [Example 1, [R-(4bS*,8α,s8aβp,12βp)]11(N-N-benzylN-isopropylaminocarbonyl)-7,10dimethyl-1-methoxy-5,6,7,8,12,12b-hexahydro-(9H){4,8methanobenzofuro[3,2]pyrrolo[2,3-g]soquinoline hydrochloride], for which the half-inhibitory concentration (IC50) (commonly the concentration that inhibits the measured activity by half) in series [1] stood at 15 nM. The “antagonism of the agonist activity by the selective delta antagonist naltrindole” value in series [1] (NG108-15 cells, naltrindole 100 nM) is on record as “completely antagonised”.
As for `CCOC(=O)c1[nH]c2c(c1C(F)(F)F)C[C@H]1[C@H]3Cc4ccc(OC)c5c4[C@@]1(CCN3C)[C@H]2O5` [Example 10], the melting point (usually the temperature, or range, at which the solid turns liquid) was 174 °C. In addition, the “Ki mu/Ki delta” value in series [2] amounted to 840. For the same compound, in series [3], the “Ki kappa/Ki delta” value worked out at 600.
